Measured values published in patent publication US11541028B2, “Peptide pharmaceuticals for treatment of NASH and other disorders” (Mederis Diabetes LLC, priority 2018, dated 2023).
Square brackets hold non-standard residues; d marks the D form. Peptide text beside a SMILES is read from it. * marks the point of attachment. GlcA(β-D,1-O-dodecyl) = CCCCCCCCCCCCO[C@@H]1O[C@H](C(=O)*)[C@@H](O)[C@H](O)[C@H]1O; αMeF = C[C@](N)(Cc1ccccc1)C(=O)O; Aib = CC(C)(N)C(=O)O

Experiments:
[1] = molecular target: T1, Glucagon R (Homo sapiens, UniProt P47871); assay: Cerep cellular assay, stimulation of cAMP levels, glucagon (human, cloned into CHO cells); format: cell-based; conditions: human receptor in CHO cells (Cerep)
T1 construct: host or cells: CHO cells
T1 sequence (P47871 26-477): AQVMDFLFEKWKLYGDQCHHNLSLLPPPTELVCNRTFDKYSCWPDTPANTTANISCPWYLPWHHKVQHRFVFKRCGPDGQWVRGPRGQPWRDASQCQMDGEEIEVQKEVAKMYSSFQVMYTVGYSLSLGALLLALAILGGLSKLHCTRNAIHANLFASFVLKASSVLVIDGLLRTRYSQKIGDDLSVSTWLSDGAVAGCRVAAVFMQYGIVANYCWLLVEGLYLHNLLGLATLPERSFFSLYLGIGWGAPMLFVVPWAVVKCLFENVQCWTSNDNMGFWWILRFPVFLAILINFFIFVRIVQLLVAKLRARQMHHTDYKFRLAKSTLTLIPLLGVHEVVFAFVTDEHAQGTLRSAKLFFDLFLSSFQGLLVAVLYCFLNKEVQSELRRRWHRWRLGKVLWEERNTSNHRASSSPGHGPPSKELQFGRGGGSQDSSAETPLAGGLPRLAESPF
Procedure: (§1) Compounds were weighed precisely in an amount of about 1 mg and assayed in standard cellular assays (Cerep SA). The readout was the amount of cAMP generated in the cells treated with the test compounds, in either agonist or antagonist mode. […] The assays are described in Chicchi et al., J. Biol. Chem., 272:7765-7769 (1997) and Runge et al., Br. J. Pharmacol., 138:787-794 (2003).

[2] = molecular target: T2, GLP-1 R (Mus musculus, UniProt O35659); assay: Cerep cellular assay, stimulation of cAMP levels, GLP-1 (murine cell line); format: cell-based; set-up: key: §means superagonist; n.c. means EC50 not calculable
T2 construct: GLP-1 (murine cell line) cellular assays
T2 sequence (O35659 22-463): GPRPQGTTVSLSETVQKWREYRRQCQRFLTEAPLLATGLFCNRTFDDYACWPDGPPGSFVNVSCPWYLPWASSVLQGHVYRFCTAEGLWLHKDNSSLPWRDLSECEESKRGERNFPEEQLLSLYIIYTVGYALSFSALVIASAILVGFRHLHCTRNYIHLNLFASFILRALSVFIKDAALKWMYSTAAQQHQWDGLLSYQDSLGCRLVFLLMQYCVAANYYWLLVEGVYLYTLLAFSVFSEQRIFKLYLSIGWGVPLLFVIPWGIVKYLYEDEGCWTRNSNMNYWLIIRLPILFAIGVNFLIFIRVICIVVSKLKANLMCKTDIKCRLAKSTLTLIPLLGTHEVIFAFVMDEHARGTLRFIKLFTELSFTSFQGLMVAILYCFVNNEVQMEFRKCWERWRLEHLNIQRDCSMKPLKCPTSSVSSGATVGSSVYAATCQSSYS
Procedure: as §1

[3] = incubation in human plasma at 30° C, in 4 hours

CCCCCCCCCCCCO[C@@H]1O[C@H](C(=O)NCCCC[C@H](NC(=O)C(C)(C)NC(=O)[C@H](CC(=O)O)NC(=O)[C@H](CC(C)C)NC(=O)[C@H](Cc2ccc(O)cc2)NC(=O)[C@H](CCCCN)NC(=O)[C@H](CO)NC(=O)[C@H](Cc2ccc(O)cc2)NC(=O)[C@H](CC(=O)O)NC(=O)[C@H](CO)NC(=O)[C@@H](NC(=O)[C@](C)(Cc2ccccc2)NC(=O)[C@@H](NC(=O)CNC(=O)[C@H](CCC(N)=O)NC(=O)C(C)(C)NC(=O)[C@@H](N)Cc2c[nH]cn2)[C@@H](C)O)[C@@H](C)O)C(N)=O)[C@@H](O)[C@H](O)[C@H]1O [EU-A391] (H-H[Aib]QGT[αMeF]TSDYSKYLD[Aib]K(GlcA(β-D,1-O-dodecyl))-NH2; N-terminus assumed)
GCGR cellular response [1]: did not change

CCCCCCCCCCCCCCO[C@@H]1O[C@H](C(=O)NCCCC[C@H](NC(=O)[C@H](CCCNC(=N)N)NC(=O)[C@H](CO)NC(=O)[C@H](CC(=O)O)NC(=O)[C@H](CC(C)C)NC(=O)[C@H](Cc2ccc(O)cc2)NC(=O)[C@H](CCCCN)NC(=O)[C@H](CO)NC(=O)[C@H](Cc2ccc(O)cc2)NC(=O)[C@H](CC(=O)O)NC(=O)[C@H](CO)NC(=O)[C@@H](NC(=O)[C@H](Cc2ccccc2)NC(=O)[C@@H](NC(=O)CNC(=O)[C@H](CCC(N)=O)NC(=O)C(C)(C)NC(=O)[C@@H](N)Cc2c[nH]cn2)[C@@H](C)O)[C@@H](C)O)C(=O)NC(C)(C)C(N)=O)[C@@H](O)[C@H](O)[C@H]1O [EU-A535]
efficacy class at GLP-1 R (mark in EC50 cell) [2]: §4800

CCCCCCCCCCCCCCO[C@@H]1O[C@H](C(=O)NCCCC[C@@H]2NC(=O)[C@H](CCC(N)=O)NC(=O)[C@@H](NC(=O)[C@H](CC(=O)O)NC(=O)[C@H](CC(C)C)NC(=O)[C@H](Cc3ccc(O)cc3)NC(=O)[C@H](CCCCN)NC(=O)[C@H](CO)NC(=O)[C@H](Cc3ccc(O)cc3)NC(=O)[C@H](CC(=O)O)NC(=O)[C@H](CO)NC(=O)[C@@H](NC(=O)[C@H](Cc3ccccc3)NC(=O)[C@@H](NC(=O)CNC(=O)[C@H](CCC(N)=O)NC(=O)C(C)(C)NC(=O)[C@@H](N)Cc3c[nH]cn3)[C@@H](C)O)[C@@H](C)O)CCC(=O)NCCCC[C@@H](C(N)=O)NC(=O)[C@H](C)NC2=O)[C@@H](O)[C@H](O)[C@H]1O [EU-A540]
EC50 GLP-1 R (nM) ([2]; n.c. = EC50 not calculable): n.c.

CC[C@H](C)[C@H](NC(=O)[C@H](Cc1ccccc1)NC(=O)[C@H](CCC(=O)O)NC(=O)[C@H](CCCCN)NC(=O)[C@H](C)NC(=O)[C@H](C)NC(=O)[C@H](CCC(N)=O)NC(=O)CNC(=O)[C@H](CCC(=O)O)NC(=O)[C@H](CC(C)C)NC(=O)[C@H](Cc1ccc(O)cc1)NC(=O)[C@H](CO)NC(=O)[C@H](CO)NC(=O)[C@@H](NC(=O)[C@H](CC(=O)O)NC(=O)[C@H](CO)NC(=O)[C@@H](NC(=O)[C@H](Cc1ccccc1)NC(=O)[C@@H](NC(=O)CNC(=O)[C@H](CCC(=O)O)NC(=O)[C@H](C)NC(=O)[C@@H](N)Cc1c[nH]cn1)[C@@H](C)O)[C@@H](C)O)C(C)C)C(=O)N[C@@H](C)C(=O)N[C@@H](Cc1c[nH]c2ccccc12)C(=O)N[C@@H](CC(C)C)C(=O)N[C@H](C(=O)N[C@@H](CCCCN)C(=O)NCC(=O)N[C@@H](CCCNC(=N)N)C(N)=O)C(C)C [GLP-1(7-36)]
cleavage of compound in human plasma (compound signal versus time) [3]: essentially complete cleavage
